Results: PMC8720286 (Chemical biology & drug design, 2020)
Values after ≈ are worked out from the molar mass of the structure shown.

Assays:
Mtb H37Rv = experiment: MIC determination by microplate AlamarBlue assay; settings: for anti-TB activity in words: susceptible strain of Mtb, SAR discussion; for Mtb MIC H37Rv/DS: Table 2, H37Rv drug-sensitive; for fold more potent against M.tb than counterparts 3 - 5 with no carbon spacer: 9 vs 3, 10 vs 4, 11 vs 5
Mtb KZN494/MDR = experiment: microbe, parasite or virus in culture; format: cell-based, Mycobacterium tuberculosis; settings: relative to H37Rv MIC
clinical isolates of Mtb = format: cell-based, Mycobacterium tuberculosis; settings: for MIC range against MDR and XDR strains of TB: range over both compounds and strains; for fold drop in activity against the tested clinical isolates of Mtb: relative to H37Rv MIC
Mtb V4207/DS = experiment: microbe, parasite or virus in culture; format: cell-based; settings: Mycobacterium tuberculosis, read-out: Mtb MIC V4207/DS
in vitro [1] = format: cell-based; settings: African green monkey
Vero cells = experiment: in vitro; format: cell-based; settings: IC50 (Vero)/MIC
CYP1A2 = biological target: T1, CYP1A2 (Homo sapiens, UniProt P05177); experiment: CYP inhibition, CYP1A2; format: in vitro ADME
T1 sequence (P05177 1-516): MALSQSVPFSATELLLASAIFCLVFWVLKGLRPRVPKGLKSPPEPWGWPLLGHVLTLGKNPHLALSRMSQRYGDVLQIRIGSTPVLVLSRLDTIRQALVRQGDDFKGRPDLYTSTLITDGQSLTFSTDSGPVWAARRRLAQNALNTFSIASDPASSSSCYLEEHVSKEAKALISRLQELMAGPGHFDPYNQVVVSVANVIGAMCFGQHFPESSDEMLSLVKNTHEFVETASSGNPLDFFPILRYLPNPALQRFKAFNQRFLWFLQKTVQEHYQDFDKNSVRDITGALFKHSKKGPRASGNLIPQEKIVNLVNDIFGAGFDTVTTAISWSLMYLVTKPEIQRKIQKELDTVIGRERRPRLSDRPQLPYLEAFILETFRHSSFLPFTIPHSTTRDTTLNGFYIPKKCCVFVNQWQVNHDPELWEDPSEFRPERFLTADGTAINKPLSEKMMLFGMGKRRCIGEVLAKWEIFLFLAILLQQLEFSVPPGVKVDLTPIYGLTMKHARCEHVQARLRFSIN

CYP2D6 = CYP2D6 (Homo sapiens, UniProt P10635); experiment: CYP inhibition, CYP2D6; format: in vitro ADME
Sequence of CYP2D6 (P10635 whole entry): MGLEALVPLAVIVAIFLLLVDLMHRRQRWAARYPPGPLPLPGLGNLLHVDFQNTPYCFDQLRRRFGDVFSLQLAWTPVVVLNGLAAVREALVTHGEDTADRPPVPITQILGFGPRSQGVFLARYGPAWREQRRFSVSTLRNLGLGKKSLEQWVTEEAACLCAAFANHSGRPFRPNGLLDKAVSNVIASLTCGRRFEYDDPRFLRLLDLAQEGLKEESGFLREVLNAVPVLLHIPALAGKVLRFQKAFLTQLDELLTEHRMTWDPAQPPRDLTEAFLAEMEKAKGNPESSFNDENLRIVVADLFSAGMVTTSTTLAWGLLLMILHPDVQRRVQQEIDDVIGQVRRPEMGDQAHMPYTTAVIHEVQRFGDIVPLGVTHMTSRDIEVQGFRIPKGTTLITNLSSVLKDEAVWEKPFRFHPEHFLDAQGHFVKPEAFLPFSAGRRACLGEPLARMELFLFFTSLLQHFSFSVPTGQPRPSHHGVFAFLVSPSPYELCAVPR

CYP2C19 = CYP2C19 (Homo sapiens, UniProt P33261); experiment: CYP inhibition, CYP2C19; format: in vitro ADME
Sequence of CYP2C19 (P33261 whole entry): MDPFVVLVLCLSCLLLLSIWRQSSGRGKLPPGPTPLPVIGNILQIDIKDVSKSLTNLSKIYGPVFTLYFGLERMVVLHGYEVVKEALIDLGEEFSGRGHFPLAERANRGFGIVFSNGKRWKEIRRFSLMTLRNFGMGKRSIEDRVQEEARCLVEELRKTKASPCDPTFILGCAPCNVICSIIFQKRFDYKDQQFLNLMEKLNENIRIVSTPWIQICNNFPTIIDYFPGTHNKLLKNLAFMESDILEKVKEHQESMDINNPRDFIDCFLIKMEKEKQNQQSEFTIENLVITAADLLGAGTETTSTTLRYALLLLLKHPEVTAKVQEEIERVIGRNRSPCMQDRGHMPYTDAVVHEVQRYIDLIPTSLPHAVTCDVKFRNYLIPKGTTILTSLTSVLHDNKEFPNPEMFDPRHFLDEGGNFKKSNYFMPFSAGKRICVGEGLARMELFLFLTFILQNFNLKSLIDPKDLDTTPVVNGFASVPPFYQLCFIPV

in vitro [2] = format: in vitro ADME; settings: human, microsomes, Liver microsomes, % remaining after 1 hr (human)
CYP3A4 = CYP3A4 (Homo sapiens, UniProt P08684); experiment: CYP inhibition, CYP3A4; format: in vitro ADME; settings: probe midazolam
Sequence of CYP3A4 (P08684 whole entry): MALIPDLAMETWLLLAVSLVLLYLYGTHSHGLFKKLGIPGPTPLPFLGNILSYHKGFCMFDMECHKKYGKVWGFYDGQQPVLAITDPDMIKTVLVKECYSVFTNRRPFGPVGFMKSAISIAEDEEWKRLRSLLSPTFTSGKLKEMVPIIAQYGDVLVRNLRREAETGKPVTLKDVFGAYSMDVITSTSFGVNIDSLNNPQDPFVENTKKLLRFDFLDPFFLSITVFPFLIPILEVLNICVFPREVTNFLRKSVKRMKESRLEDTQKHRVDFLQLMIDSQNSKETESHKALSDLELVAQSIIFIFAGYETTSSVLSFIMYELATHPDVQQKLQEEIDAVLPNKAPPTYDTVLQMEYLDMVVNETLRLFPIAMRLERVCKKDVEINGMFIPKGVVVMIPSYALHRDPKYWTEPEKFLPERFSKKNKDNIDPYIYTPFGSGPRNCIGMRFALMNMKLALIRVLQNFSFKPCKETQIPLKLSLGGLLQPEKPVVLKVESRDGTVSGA

in vitro [3] = format: in vitro ADME; settings: mouse, microsomes, Liver microsomes, % remaining after 1 hr (mouse)
in vitro [4] = format: in vitro ADME
CYP2C9 = CYP2C9 (Homo sapiens, UniProt P11712); experiment: CYP inhibition, CYP2C9; format: in vitro ADME
Sequence of CYP2C9 (P11712 whole entry): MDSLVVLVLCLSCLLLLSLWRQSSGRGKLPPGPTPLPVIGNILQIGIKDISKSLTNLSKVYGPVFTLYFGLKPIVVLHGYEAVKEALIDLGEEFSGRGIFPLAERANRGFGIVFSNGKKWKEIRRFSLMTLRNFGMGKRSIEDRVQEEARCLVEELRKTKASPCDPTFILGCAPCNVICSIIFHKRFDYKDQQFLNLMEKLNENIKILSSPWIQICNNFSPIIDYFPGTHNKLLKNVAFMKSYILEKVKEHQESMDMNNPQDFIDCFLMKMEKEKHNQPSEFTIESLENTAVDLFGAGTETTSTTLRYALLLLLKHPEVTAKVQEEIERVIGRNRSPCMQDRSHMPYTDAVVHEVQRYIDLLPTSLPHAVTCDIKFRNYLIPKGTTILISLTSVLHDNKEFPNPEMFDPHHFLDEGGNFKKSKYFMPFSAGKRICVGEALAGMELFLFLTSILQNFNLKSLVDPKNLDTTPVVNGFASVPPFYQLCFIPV

[5] = biological target: human Ether-à-go-go related gene (hERG) channel (Homo sapiens, UniProt Q12809); experiment: hERG channel inhibition, manual patch-clamp; format: cell-based
Sequence of human Ether-à-go-go related gene (hERG) channel (Q12809 whole entry): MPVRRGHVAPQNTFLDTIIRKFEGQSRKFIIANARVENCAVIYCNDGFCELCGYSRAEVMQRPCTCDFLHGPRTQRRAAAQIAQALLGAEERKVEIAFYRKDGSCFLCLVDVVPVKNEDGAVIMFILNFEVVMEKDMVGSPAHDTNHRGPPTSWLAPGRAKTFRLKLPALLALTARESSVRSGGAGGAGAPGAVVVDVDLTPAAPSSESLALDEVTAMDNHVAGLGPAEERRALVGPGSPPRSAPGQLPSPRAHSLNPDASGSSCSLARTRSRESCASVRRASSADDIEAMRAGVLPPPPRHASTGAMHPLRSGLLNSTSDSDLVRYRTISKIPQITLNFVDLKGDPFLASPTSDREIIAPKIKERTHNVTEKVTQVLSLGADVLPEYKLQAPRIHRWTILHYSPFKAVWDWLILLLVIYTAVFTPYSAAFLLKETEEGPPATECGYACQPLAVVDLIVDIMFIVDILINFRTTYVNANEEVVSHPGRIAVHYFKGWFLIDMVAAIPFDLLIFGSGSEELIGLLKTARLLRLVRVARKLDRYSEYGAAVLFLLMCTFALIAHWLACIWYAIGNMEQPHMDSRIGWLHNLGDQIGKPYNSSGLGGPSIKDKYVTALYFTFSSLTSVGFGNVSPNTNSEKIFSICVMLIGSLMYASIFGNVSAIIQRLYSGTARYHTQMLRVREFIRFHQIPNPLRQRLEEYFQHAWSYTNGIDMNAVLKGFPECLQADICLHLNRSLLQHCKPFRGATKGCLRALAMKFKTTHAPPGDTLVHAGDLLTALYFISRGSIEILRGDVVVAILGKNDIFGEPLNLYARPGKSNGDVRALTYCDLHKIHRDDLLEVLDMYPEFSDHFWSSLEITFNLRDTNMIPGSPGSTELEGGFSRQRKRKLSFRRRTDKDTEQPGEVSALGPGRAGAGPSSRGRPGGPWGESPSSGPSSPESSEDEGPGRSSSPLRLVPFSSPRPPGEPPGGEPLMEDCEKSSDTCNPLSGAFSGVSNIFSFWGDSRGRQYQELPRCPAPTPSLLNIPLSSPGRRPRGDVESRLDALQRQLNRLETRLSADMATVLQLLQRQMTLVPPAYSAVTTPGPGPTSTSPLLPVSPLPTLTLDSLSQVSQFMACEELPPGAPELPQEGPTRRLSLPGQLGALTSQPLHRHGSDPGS

hERG = hERG (Homo sapiens, UniProt Q12809); experiment: hERG channel inhibition, manual patch-clamp; format: cell-based; settings: human
Sequence of hERG (Q12809 whole entry): as above

in vitro [6] = format: in vitro ADME; settings: mouse, plasma
in vitro [7] = format: in vitro ADME; settings: human, plasma

In the case of `Cc1ccc2nc(C)c(C(=O)NCC34CC5CC(CC(C5)C3)C4)n2c1` [Compound 12, N-(adamantan-1-ylmethyl)-2,6-dimethylimidazo[1,2-a]pyridine-3-carboxamide], the “anti-TB activity in words” value (Mtb H37Rv) is reported as “poor anti-TB activity”.
In the case of `Cc1ccc2nc(C)c(C(=O)NCCCC3CCCCC3)n2c1` [Compound 15, N-(3-cyclohexylpropyl)-2,6-dimethylimidazo[1,2-a]pyridine-3-carboxamide], the “fold increase in activity against MDR Mtb strain KZN494” value (Mtb KZN494/MDR) is reported as 2 fold, the “MIC range against MDR and XDR strains of TB” value (clinical isolates of Mtb) is reported as 0.05 to 1.5 µM and the “fold drop in activity against the tested clinical isolates of Mtb” value (clinical isolates of Mtb) is reported as “up to 2 fold”. For the same molecule, the MIC (Mtb V4207/DS) was 0.1 µM (≈ 0.0313 µg/mL), the IC50 at 72 h (in vitro [1]) was 102 µM and the “SI, Selectivity index = IC50 (Vero)/MIC” value (Vero cells) was 1024. The “fold more active than isoniazid against H37Rv” value (Mtb H37Rv; ratio of MIC) was 1.5 - 3 fold, the “Mtb MIC H37Rv/DS” value (Mtb H37Rv) was 0.10 µM and the “fold more active than compounds 9 and 13” value (Mtb H37Rv; ratio of MIC) was 4 fold.
Work on `Cc1nc2ccc(Cl)cn2c1C(=O)NCCCC1CCCCC1` [Compound 16, 6-chloro-N-(3-cyclohexylpropyl)-2-methylimidazo[1,2-a]pyridine-3-carboxamide] yielded an inhibition at 10 µM (CYP1A2) of 26.3%, an inhibition at 10 µM (CYP2D6) of 16.4% and an inhibition at 10 µM (CYP2C19) of 45.2%. The remaining at 1 h, 1 μM (in vitro [2]) was about 1.5%, the inhibition at 10 µM (CYP3A4) was 52.2% and the remaining at 1 h, 1 μM (in vitro [3]) was about 0.15%. For the same molecule, the “fold increase in activity against MDR Mtb strain KZN494” value (Mtb KZN494/MDR) was 2 fold, the “% degraded after 2 hours incubation with human hepatocyte” value (in vitro [4]; 2 h, 1 μM) was “over 95%” and the remaining at 2 h, 1 μM (in vitro [4]; human, hepatocytes) was 0.19%. For the same molecule, the “MIC range against MDR and XDR strains of TB” value (clinical isolates of Mtb) was 0.05 to 1.5 µM, the “fold drop in activity against the tested clinical isolates of Mtb” value (clinical isolates of Mtb) was “up to 8 fold” and the MIC (Mtb V4207/DS) was 0.37 µM (≈ 0.124 µg/mL). It also gave an inhibition at 10 µM (CYP2C9) of 32.2%, an IC50 [5] of over 10 µM and an inhibition at 10 µM (hERG) of 29.1%. For the same molecule, the IC50 at 72 h (in vitro [1]) was at least 192 µM, the “SI, Selectivity index = IC50 (Vero)/MIC” value (Vero cells) was at least 1024 and the “fold more active than isoniazid against H37Rv” value (Mtb H37Rv; ratio of MIC) was 1.5 - 3 fold. For the same molecule, the “Mtb MIC H37Rv/DS” value (Mtb H37Rv) was 0.19 µM, the “fold drop in activity relative to compound 15” value (Mtb H37Rv; ratio of MIC) was “approximately 2 fold” and the fraction unbound (in vitro [6]) was 0.0036. The fraction unbound (in vitro [7]) was 0.0011.
For `Cc1ccc2nc(C)c(C(=O)NCC3CCCCCC3)n2c1` [Compound 10, N-(cycloheptylmethyl)-2,6-dimethylimidazo[1,2-a]pyridine-3-carboxamide], the “fold more potent against M.tb than counterparts 3 - 5 with no carbon spacer” value (from here on “fold more potent … with no carbon spacer”) (Mtb H37Rv; ratio of MIC) was 133 fold.
With `O=C(NCCCC1CCCCC1)c1c(-c2ccccc2)nc2cc(Cl)ccn12` [Compound 17, 7-chloro-N-(3-cyclohexylpropyl)-2-phenylimidazo[1,2-a]pyridine-3-carboxamide] the “anti-TB activity in words” value (Mtb H37Rv) was “complete loss in activity”.
In the case of `O=C(NC1CCCCCCC1)c1cn2ccc(Cl)cc2n1` [Compound 18, 7-chloro-N-cyclooctylimidazo[1,2-a]pyridine-2-carboxamide], the “anti-TB activity in words” value (Mtb H37Rv) is reported as “less active”.
In the case of `Cc1ccc2nc(C)c(C(=O)NCC3CCCCC3)n2c1` [Compound 9, N-(cyclohexylmethyl)-2,6-dimethylimidazo[1,2-a]pyridine-3-carboxamide], the “fold more potent … with no carbon spacer” value (Mtb H37Rv; ratio of MIC) is reported as 267 fold.
For `O=C(NCCCC1CCCCC1)c1cn2ccc(Cl)cc2n1` [Compound 19, 7-chloro-N-(3-cyclohexylpropyl)imidazo[1,2-a]pyridine-2-carboxamide], the “anti-TB activity in words” value (Mtb H37Rv) was “less active”.
For `Cc1ccc2nc(C)c(C(=O)NCC3CCCCCCC3)n2c1` [Compound 11, N-(cyclooctylmethyl)-2,6-dimethylimidazo[1,2-a]pyridine-3-carboxamide], the “fold more potent … with no carbon spacer” value (Mtb H37Rv; ratio of MIC) was 133 fold.
